Experiments:
[1] = system: rat erythrocytes; assay: Hemolysis test with rat erythrocytes; assay type: cell-based; conditions: PIDA dispersions of different concentrations; Triton = 100% hemolysis control
Procedure: When a material is applied in the biomedical field, in addition to the special imaging/treatment effect of the material, the biocompatibility of the material itself is the topic that people are most concerned about. At the cell level, PIDA dispersions of different concentrations were mixed with rat erythrocytes in the present invention. […] In addition, in the present invention, PIDA dispersions of different concentrations were respectively incubated together with 4Tl cells (mouse breast cancer cells), NIH 3T3 cells (mouse embryonic fibroblasts) and HEK 293T (human embryonic kidney cells) for 12 hours, and cell viability was verified by means of MTT verification.

[2] = Local injection into rat leg muscles under CT guidance, CT marking over time; assay type: in vivo; conditions: rat leg muscle, iodine content increased by 25 times
Procedure: In order to verify whether the super-strong CT imaging effect of PIDA is practically applicable, the PIDA dispersion and iohexol with the same iodine content were injected locally into leg muscles of a rat respectively under CT guidance in the present invention. For effective CT marking, the CT signal intensity thereof should be 2 times or more that of background tissues. A background CT signal of rat muscle tissues is about 50 HU, so the CT marking signal intensity exceeding 100 HU can be regarded as effective CT marking. […] To further verify the high efficiency and location stability of PIDA CT imaging, in the present invention, iohexol with the iodine content being increased by 25 times was injected into a corresponding leg muscle site of a rat.

| Molecule | hemolysis rate [1] | time until CT enhancement completely disappeared [2] [h] |
| --- | --- | --- |
| Triton | complete hemolysis | – |
| CC(=O)N(CC(O)CO)c1c(I)c(C(=O)NCC(O)CO)c(I)c(C(=O)NCC(O)CO)c1I (centres unmarked) [iohexol] | – | ≤ 6 |
